# According to patent publication US10550165B2, “Peptide for inducing regeneration of tissue and use thereof” (STEMRIM INC., priority 2011, dated 2020):
# Tested on: mouse bone marrow mesenchymal stem cell line (MSC-1 cells), PDGFRα-positive
# Test: Migration assay (Boyden / 48-well chemotaxis chamber) on bone marrow mesenchymal stem cell line MSC-1
# Type: cell-based
# Conditions: 2 μM, area of migrated cells by image analysis, FIG. 10
# Experimental: Cells of a mouse bone marrow mesenchymal stem cell line (MSC-1 cells, established by Tamai et al. of Osaka University (PDGFRα-positive cells in bone marrow are mobilized by high mobility group box 1 (HMGB1) to regenerate injured epithelia. (Tamai et al., Proc Natl Acad Sci USA. Apr. 4, 2011))) were detached from dishes using trypsin, and collected by centrifugation at 1200 rpm and 4° C. for 10 minutes. The resulting pellet was loosened and suspended at a cell concentration of 2.0×10^6 to 3.0×10^6 cells/ml by adding Dulbecco's Modified Eagle Medium (D-MEM) containing 10% fetal bovine serum (FBS). The recombinant protein and peptides produced in HEK293 were diluted with D-MEM containing 10% FBS. The negative control used was phosphate buffered saline (PBS). An acrylic Boyden chamber was used; cells of the mouse bone marrow mesenchymal stem cell line prepared at a cell concentration of 3×10^6 cells/ml were placed in its upper layer, while a diluted protein or peptide is added to the bottom layer. More specifically, a 28 μl aliquot of a protein or peptide solution was added to each well of the bottom plate of a 48-well chemotaxis chamber (NEURO PROBE 48WELL CHEMOTAXIS CHAMBER), and a polycarbonate membrane with 8 μm pores (Neuro Probe, Inc, Cat: 866-417-0014) was placed on the bottom plate. Then, an upper plate was placed on the membrane and screwed tightly. 50 μl of cells of the mouse bone marrow mesenchymal stem cell line after concentration adjustment were added to the upper plate wells. The chamber was placed in an incubator under 5% CO2 at 37° C. After four hours, the membrane was removed from the chamber and stained with Diff-Quik (Sysmex, Cat: 16920) to detect cells that migrated through membrane pores to the lower compartment.
# The peptides listed below were custom synthesized using the solid phase method by Medical & Biological Laboratories (MBL). The peptides were synthesized based on the mouse HMGB1 sequence (SEQ ID NO: 3). Synthetic peptides described in subsequent Examples were also prepared based on the mouse HMGB1 sequence. • A synthetic peptide consisting of the amino acid sequence from positions 1 to 10 of HMGB1 (1-10); • a synthetic peptide consisting of the amino acid sequence from positions 1 to 34 of HMGB1 (1-34); • a synthetic peptide consisting of the amino acid sequence from positions 37 to 62 of HMGB1 (37-62); • a synthetic peptide consisting of the amino acid sequence from positions 27 to 62 of HMGB1 (27-62); • a synthetic peptide consisting of the amino acid sequence from positions 56 to 72 of HMGB1 (56-72); • a synthetic peptide consisting of the amino acid sequence from positions 11 to 20 of HMGB1 (11-20); • a synthetic peptide consisting of the amino acid sequence from positions 11 to 25 of HMGB1 (11-25); • a synthetic peptide consisting of the amino acid sequence from positions 11 to 30 of HMGB1 (11-30); • a synthetic peptide consisting of the amino acid sequence from positions 11 to 34 of HMGB1 (11-34); • a synthetic peptide consisting of the amino acid sequence from positions 11 to 44 of HMGB1 (11-44); • a synthetic peptide consisting of the amino acid sequence from positions 17 to 44 of HMGB1 (17-44); • a synthetic peptide consisting of the amino acid sequence from positions 1 to 25 of HMGB1 (1-25); and the whole mouse HMGB1 produced in HEK293 (1-215(HEK)) as a positive control were adjusted to 100 μg/ml and placed in the lower layer of a chemotaxis chamber to assess the migration-promoting activity on bone marrow mesenchymal stem cell line (MSC-1). Results
# As positive controls, centrifuged supernatant of the skin of a one-day-old mouse (one individual) incubated in PBS at 4° C. for 12 hours, and the whole mouse HMGB1 (HMGB1(HEK_1-215)) produced in HEK293 were used. […]
Substance,"migration-promoting activity relative to the full-length HMGB1, compared per equal mass","migration-promoting activity relative to the full-length HMGB1, compared per equal mole"
"peptide (1-44) produced in E. coli: amino acids of positions 1 to 44 of mouse HMGB1 produced using E. coli, tag removed by HRV3C (MGKGDPKKPRGKMSSYAFFVQTCREEHKKKHPDASVNFSEFSKK; UniProt P63158 1-44, looked up, fragment)",about 8 times,about 1.6 times

# Same assay, conditions: peptides produced using HEK293, concentration not stated
row,Substance,activity of promoting the migration of MSC-1
1,"1-48: peptide comprising the amino acid sequence of positions 1 to 48, produced using HEK293 (MGKGDPKKPRGKMSSYAFFVQTCREEHKKKHPDASVNFSEFSKKCSER; UniProt P09429 1-48, looked up, fragment)",showed the activity of promoting the migration of bone marrow mesenchymal stem line MSC-1
2,"1-43: peptide comprising the amino acid sequence of positions 1 to 43, produced using HEK293 (MGKGDPKKPRGKMSSYAFFVQTCREEHKKKHPDASVNFSEFSK; UniProt P09429 1-43, looked up, fragment)",showed the activity of promoting the migration of bone marrow mesenchymal stem line MSC-1
3,"1-52: peptide comprising the amino acid sequence of positions 1 to 52, produced using HEK293 (MGKGDPKKPRGKMSSYAFFVQTCREEHKKKHPDASVNFSEFSKKCSERWKTM; UniProt P09429 1-52, looked up, fragment)",showed the activity of promoting the migration of bone marrow mesenchymal stem line MSC-1
4,"1-49: peptide comprising the amino acid sequence of positions 1 to 49, produced using HEK293 (MGKGDPKKPRGKMSSYAFFVQTCREEHKKKHPDASVNFSEFSKKCSERW; UniProt P09429 1-49, looked up, fragment)",showed the activity of promoting the migration of bone marrow mesenchymal stem line MSC-1
5,"1-50: peptide comprising the amino acid sequence of positions 1 to 50, produced using HEK293 (MGKGDPKKPRGKMSSYAFFVQTCREEHKKKHPDASVNFSEFSKKCSERWK; UniProt P63158 1-50, looked up, fragment)",showed the activity of promoting the migration of bone marrow mesenchymal stem line MSC-1
6,"1-46: peptide comprising the amino acid sequence of positions 1 to 46, produced using HEK293 (MGKGDPKKPRGKMSSYAFFVQTCREEHKKKHPDASVNFSEFSKKCS; UniProt P63158 1-46, looked up, fragment)",showed the activity of promoting the migration of bone marrow mesenchymal stem line MSC-1

# Same assay, conditions: synthetic peptides, 5 μM, FIGS. 8A and 8B
row,Substance,migration-promoting activity
1,"(16-30): synthetic peptide consisting of the amino acid sequence from positions 16 to 30 of HMGB1 (YAFFVQTCREEHKKK; UniProt P09429 16-30, looked up, fragment)",weak activity
2,"(15-30): synthetic peptide consisting of the amino acid sequence from positions 15 to 30 of HMGB1 (SYAFFVQTCREEHKKK; UniProt P09429 15-30, looked up, fragment)",weak activity
3,"(11-28): synthetic peptide consisting of the amino acid sequence from positions 11 to 28 of HMGB1 (GKMSSYAFFVQTCREEHK; UniProt P09429 11-28, looked up, fragment)",strong migration-promoting activity
4,"(14-30): synthetic peptide consisting of the amino acid sequence from positions 14 to 30 of HMGB1 (SSYAFFVQTCREEHKKK; UniProt P09429 14-30, looked up, fragment)",strong migration-promoting activity
5,"(16-25): synthetic peptide consisting of the amino acid sequence from positions 16 to 25 of HMGB1 (YAFFVQTCRE; UniProt P09429 16-25, looked up, fragment)",weak activity
6,"(12-30): synthetic peptide consisting of the amino acid sequence from positions 12 to 30 of HMGB1 (KMSSYAFFVQTCREEHKKK; UniProt P09429 12-30, looked up, fragment)",strong migration-promoting activity
7,"(15-25): synthetic peptide consisting of the amino acid sequence from positions 15 to 25 of HMGB1 (SYAFFVQTCRE; UniProt P09429 15-25, looked up, fragment)",weak activity
8,"(11-29): synthetic peptide consisting of the amino acid sequence from positions 11 to 29 of HMGB1 (GKMSSYAFFVQTCREEHKK; UniProt P09429 11-29, looked up, fragment)",strong migration-promoting activity
9,"(13-30): synthetic peptide consisting of the amino acid sequence from positions 13 to 30 of HMGB1 (MSSYAFFVQTCREEHKKK; UniProt P09429 13-30, looked up, fragment)",strong migration-promoting activity
10,"(10-25): synthetic peptide consisting of the amino acid sequence from positions 10 to 25 of HMGB1 (RGKMSSYAFFVQTCRE; UniProt P09429 10-25, looked up, fragment)",strong migration-promoting activity
11,"(13-25): synthetic peptide consisting of the amino acid sequence from positions 13 to 25 of HMGB1 (MSSYAFFVQTCRE; UniProt P09429 13-25, looked up, fragment)",weak activity
12,"(11-25): synthetic peptide consisting of the amino acid sequence from positions 11 to 25 of HMGB1 (GKMSSYAFFVQTCRE; UniProt P09429 11-25, looked up, fragment)",weak activity

# Same assay, conditions: synthetic peptides, 10 μM and 5 μM, FIG. 9
row,Substance,migration-promoting activity
1,"(55-84): synthetic peptide consisting of the amino acids of positions 55 to 84 (KEKGKFEDMAKADKARYEREMKTYIPPKGE; UniProt P09429 55-84, looked up, fragment)",exhibited migration-promoting activity which was however weaker as compared to synthetic peptides (1-44) and (1-34)
2,"(45-74): synthetic peptide consisting of the amino acids of positions 45 to 74 (CSERWKTMSAKEKGKFEDMAKADKARYERE; UniProt P09429 45-74, looked up, fragment)",exhibited migration-promoting activity which was however weaker as compared to synthetic peptides (1-44) and (1-34)

# Same assay, conditions: synthetic peptides, 100 μg/ml, positive control 1-215(HEK), FIG. 7
row,Substance,migration-promoting activity
1,"(11-34): synthetic peptide consisting of the amino acid sequence from positions 11 to 34 of HMGB1 (GKMSSYAFFVQTCREEHKKKHPDA; UniProt P09429 11-34, looked up, fragment)",activity comparable to or higher than that of the positive control
2,"(11-25): synthetic peptide consisting of the amino acid sequence from positions 11 to 25 of HMGB1 (GKMSSYAFFVQTCRE; UniProt P09429 11-25, looked up, fragment)",found to have the activity
